{
  "source": "patent US9410152B2",
  "about": "“Use of microrna molecules to influence skin pigmentation” (CHANEL PARFUMS BEAUTE, priority 2011, dated 2016)",
  "system": "MNT-1 cells",
  "assay": "Measurement of the relative melanin concentration (absorbance at 470 nm of protein lysates)",
  "type": "cell-based, human",
  "settings": "Homo sapiens, 288 h, 3.5 mM, 12 days, read-out: percentage inhibition (depigmentation positive control)",
  "description": "4×10^5 MNT-1 cells were seeded per well in a 6-well plate (#353046, Falcon) on day-1. On day 0, the cells were transfected with 50 nM of mimetic of the miRNAs (hsa-mir-137 # C-300604-07-005, hsa-mir-7 # C-300547-05-0005, hsa-mir-330-5p # C-301082-01-0005, negative control # NC-002000-01-05, Dharmacon), using 5 μL of Lipofectamine 2000 (#1668-019, Invitrogen). On day 1, the medium was changed. On day 3, the cells were trypsinized and seeded at 4×10^5 cells per well. On day 4, the cells were transfected again with 50 nM of mimetic of the miRNAs (see day 0). On day 5, the medium was changed. On day 7, the cells were trypsinized and seeded at 4×10^5 cells per well. On day 8, the cells were transfected with 50 nM of mimetic of the miRNAs (see day 0). On day 9, the medium was changed. On day 10, the cells were trypsinized and divided into two (from one by six wells to two by six wells). On day 12, one six-well plate was used for lysis of the RNA and the other for lysis of the proteins. As positive control of depigmentation, MNT-1 cells were incubated with 3.5 mM of kojic acid (Sigma K3125-5G) for 12 days. The cells were distributed as described and the kojic acid was renewed with the medium every 4 days. The percentage inhibition of the kojic acid is of the order of 10%.\nOn day 12, the cells were washed in PBS twice and lysed in 75 μL/well of a 6-well dish of lysis buffer for the RIPA proteins. The protein lysates were transferred to 1.5-ml Eppendorf tubes and vortexed lightly to homogenize the solution before putting the tube on ice or for storage at −80° C. 2 μL of protein lysate was used for measuring the absorbance of the melanin at 470 nm using the NanoVue spectrophotometer (GE Healthcare). The protein lysate of the unpigmented XB2 keratinocytes was used as calibrator sample (reference=0). To detect the relative quantity of melanin, all the samples were compared with the transfection control sample (miCtrl). The absorbance at 470 nm of the sample miCtrl was fixed at 1 as reference. In addition, the melanin absorption at 470 nm was normalized taking into account the concentration of proteins of each sample relative to miCtrl.",
  "data": [
    {"smiles": "O=c1cc(CO)occ1O", "note": "[kojic acid, reference compound]", "values": [
      {"measurement": "inhibition at 3500 µM", "result": "~10", "unit": "%"}
    ]}
  ]
}
